# Laboratory results taken from US7649013B2, “Methods of protecting against radiation injury” (priority 2003, dated 2010).
# Entries after “also recorded” stand apart in the source; their conditions may differ.
# Legend:
# [1] = test system: C57BL/6J inbred strain female mice; experiment: Survival after 8 Gy whole body γ-irradiation, oral 200 mg/kg at varying time points before (Example 6); type: in vivo; details: for No. of animals surviving at 20 days post-irradiation: 10 animals; for Death rate (%): 20 days
# Method: β-lapachone is prepared at 10 mg/ml in 40% hydroxypropyl-beta-cyclodextrin (HPBCD).
# C57BL/6J inbred strain female mice (4-5 weeks old) are used. Animals are maintained in a climate-controlled animal facility.
# β-lapachone (200 mg/kg body weight) is orally administered to animals at either 0.5 hour, 1 hour, 2 hours, 4 hours or 6 hours before irradiation.
# Whole body irradiation of animals with 8 Gy of γ-rays is carried out in air at room temperature in a gamma chamber (Gammacell 40 Exactor), at a dose-rate of 1.05 Gy/min. This radiation dose is within the range of equivalent human exposures predicted in many scenarios of radiologic or nuclear terrorist attack. […]
# Group III: β-lapachone (200 mg/kg body weight) is orally administered to mice 6 hours before radiation.
# Group IV: β-lapachone (200 mg/kg body weight) is orally administered to mice 4 hours before radiation.
# Group V: β-lapachone (200 mg/kg body weight) is orally administered to mice 2 hours before radiation.
# Group VI: β-lapachone (200 mg/kg body weight) is orally administered to mice 1 hour before radiation.
# Group VII: β-lapachone (200 mg/kg body weight) is orally administered to mice 0.5 hour before radiation.
# Animals are irradiated with 8 Gy at 1.05 Gy/min dose-rate. After irradiation mice are returned to their cage and observed on a regular basis. Exposure to γ-rays causes lethality in animals. Importantly, treatment with β-lapachone, especially at a level of 200 mg/kg orally at one hour prior to irradiation, diminishes the death rate.
# [2] = test system: Chk2 in human cervical cancer cells (HeLa); experiment: Chk2 phosphorylation by immunoblotting of whole cell lysates; type: cell-based; details: 4 μM
# Method: Human cervical cancer cells (HeLa) are treated with 4 μM β-lapachone for 0, 3, 10, 30, 60 and 120 minutes. Whole cell lysates are prepared, separated by SDS-PAGE, and analyzed by immunoblotting with anti-Chk2 and anti-phosphorylated-Chk2 antibodies.
# [3] = test system: BRCA1 in human colon cancer cells (SW480); experiment: Relative expression of cell cycle checkpoint genes, Human Cell-cycle Checkpoint GEArray Kit; type: cell-based; details: SW480, 2 μM, 4 hours, vs carrier alone
# Method: Exponentially growing human colon cancer cells (SW480) are treated with β-lapachone at 2 μM, or carrier alone control, for 4 hours. Total RNA is prepared by Trizol reagents. Relative expression levels of multiple genes involved in cell cycle checkpoint are determined with the Human Cell-cycle Checkpoint GEArray Kit (SuperArray Inc. Bethesda, Md.) (FIG. 3). The up-regulation of the E2F1 target BRCA1 in β-lapachone treated cancer cells is another indication of E2F1 activation. BRCA1 is a tumor suppressor involved in many roles within the cell including DNA repair.
# [4] = test system: C57BL/6J inbred strain female mice; experiment: Radiation-induced leukopenia after whole body irradiation, leukocyte count (Example 8); type: in vivo; details: for L % (percentage of lymphocytes) / M % (percentage of monocytes) / N % (percentage of neutrophils) / WBC: 40 mg/kg i.p. 0.5 hour before 8 Gy
# Method: The effect of β-lapachone pre-treatment on radiation-induced leukopenia (e.g., radiation-induced neutropenia, monocytopenia, or lymphocytopenia, or subcombinations thereof) following whole body gamma irradiation in mice, with and without pretreatment with β-lapachone, is assessed as follows. β-lapachone is prepared at 10 mg/ml in 40% hydroxypropyl-beta-cyclodextrin (HPBCD). C57BL/6J inbred strain female mice (4-5 weeks old) are organized into three groups of six mice each: Group I mice receive no radiation, no β-lapachone, and no carrier; Group II mice receive radiation and are injected with carrier (40% HPBCD 4 ml/kg body weight); and Group III mice are injected intraperitoneally at 0.5 hour before irradiation with β-lapachone (40 mg/kg body weight). Whole body irradiation of animals with 8 Gy (lethal radiation) or 5 Gy (sublethal radiation) of γ-rays is carried out in air at room temperature in a gamma chamber (Gammacell 40 Exactor), with a dose-rate of 1.05 Gy/min. This radiation dose is within the range of equivalent human exposures predicted in many scenarios of radiologic or nuclear terrorist attack. Following irradiation, animals are maintained in a climate-controlled animal facility. Three mice in each of Groups I, II, and III are sacrificed on day five following irradiation, and an analysis of radiation-induced leukopenia is performed for each. The remaining mice are sacrificed on day eight following irradiation, and an analysis of radiation-induced leukopenia is performed for each. Leukocytes are counted automatically using a hemacytometer counter in the animal facility at MIT.
# rats = details: p.o. daily for one month; cited from earlier work
# [5] = test system: C57BL/6J inbred strain female mice; experiment: Quantitative spleen cellularity after whole body irradiation, trypan blue exclusion count (Example 7b); type: in vivo; details: 40 mg/kg i.p. 0.5 hour before 8 Gy; day five and eight; P=0.00035
# Method: Spleen cellularity is quantitatively assessed following whole body gamma irradiation in mice, with and without pretreatment with β-lapachone, as follows. β-lapachone is prepared at 10 mg/ml in 40% hydroxypropyl-beta-cyclodextrin (HPBCD). C57BL/6J inbred strain female mice (4-5 weeks old) are organized into three groups of six mice each: Group I mice receive no radiation, no β-lapachone, and no carrier; Group II mice receive radiation and are injected with carrier (40% HPBCD 4 ml/kg body weight); and Group III mice are injected intraperitoneally at 0.5 hour before irradiation with β-lapachone (40 mg/kg body weight). […] Three mice in each of Groups I, II, and III are sacrificed on day five following irradiation, and a quantitative analysis of splenic cellularity is performed for each. The remaining mice are sacrificed on day eight following irradiation, and a quantitative analysis of splenic cellularity is performed for each.
# For quantitative analysis for splenic cellularity, spleens are processed into single cell suspensions and erythrocytes are lysed in 2 ml lysis buffer (0.01 M KHCO3, 0.154 M NH4Cl, 0.01 mM EDTA). The remaining leukocytes are washed, suspended and counted in a hemacytometer using the trypan blue exclusion method.
# [6] = 200 mg/kg p.o. 0.5 hr before Radiation 8 Gy
# [7] = 200 mg/kg p.o. 1 hr before Radiation 8 Gy
# [8] = 200 mg/kg p.o. 2 hr before Radiation 8 Gy
# [9] = 200 mg/kg p.o. 4 hr before Radiation 8 Gy
# [10] = 200 mg/kg p.o. 6 hr before Radiation 8 Gy
smiles,measurement,setting,value
"CC1(C)CCC2=C(O1)c1ccccc1C(=O)C2=O [β-lapachone, 3,4-dihydro-2,2-dimethyl-2H-naphtho[1,2-b]pyran-5,6-dione]",Median survival time,[1]; [6],10 days
same,No. of animals surviving at 20 days post-irradiation,[1]; [6],0
same,Death rate (%),[1]; [6],100%
same,Survival of the treated mice at day 50 post irradiation (FIG. 7),[1]; 200 mg/kg p.o. 1 hour prior to 8 Gy,more than 30%
same,Median survival time,[1]; [7],18 days
same,No. of animals surviving at 20 days post-irradiation,[1]; [7],3
same,Death rate (%),[1]; [7],70%
same,Median survival time,[1]; [8],10 days
same,No. of animals surviving at 20 days post-irradiation,[1]; [8],0
same,Death rate (%),[1]; [8],100%
same,Median survival time,[1]; [9],14 days
same,No. of animals surviving at 20 days post-irradiation,[1]; [9],0
same,Death rate (%),[1]; [9],100%
same,Median survival time,[1]; [10],18 days
same,No. of animals surviving at 20 days post-irradiation,[1]; [10],1
same,Death rate (%),[1]; [10],90%
same,Time at which phosphorylated Chk2 levels appear,[2],10 min
same,Phosphorylated Chk2 (p-Chk2) level / proportion of phosphorylated Chk2,[2]; 0-120 minutes,induces an increase in the proportion of phosphorylated Chk2; also recorded: sustained increase
same,Total amount of Chk2 within the cells,[2]; 0-120 minutes,remains unchanged
same,BRCA1 relative expression level,[3],induces increased expression; also recorded: up-regulation
same,L % (percentage of lymphocytes),[4]; Day 5,66.24%
same,M % (percentage of monocytes),[4]; Day 5,8.13%
same,N % (percentage of neutrophils),[4]; Day 5,19.1%
same,WBC,[4]; Day 5,0.53 ± 0.4 1000 cells/ml
same,L % (percentage of lymphocytes),[4]; Day 8,52.69%
same,M % (percentage of monocytes),[4]; Day 8,13.23%
same,N % (percentage of neutrophils),[4]; Day 8,20.29%
same,WBC,[4]; Day 8,0.37 ± 0.24 1000 cells/ml
same,"Protection against radiation-induced neutropenia, monocytopenia, and lymphocytopenia","[4]; pretreatment, 8 Gy, day 5 and day 8, P<0.05",partially protects
same,Maximum tolerated dose,rats,200 mg/kg
same,"Splenic cellularity, quantitative (FIG. 9)",[5],significantly preserved cellularity
